From ChEMBL document CHEMBL3769326, “Discovery of fluoroquinolone derivatives as potent, selective inhibitors of PI3K” (Medchemcomm, 2015)

Columns and labels:
[1] = tested on: A549; assay: Antiproliferative activity against human A549 cells after 72 hrs by MTT assay; format: functional, cell-based; conditions: A549, 72 h
[2] = tested on: HepG2; assay: cells; conditions: Homo sapiens, HepG2, 72 h
[3] = biological target: PI3-kinase p110-alpha/p85-alpha (Homo sapiens, UniProt P42336); assay: Inhibition of human PI3K p110alpha/p85alpha by fluorescence-based immunoassay; format: protein-complex assay
[4] = biological target: Phosphatidylinositol 4,5-bisphosphate 3-kinase catalytic subunit gamma isoform (Homo sapiens, UniProt P48736); assay: Inhibition of human PI3K 110gamma by fluorescence-based immunoassay
[5] = Cytotoxicity against macrophages after 72 hrs by MTT assay; format: cell-based, Macrophage
[6] = biological target: T1, Phosphatidylinositol 4,5-bisphosphate 3-kinase catalytic subunit delta isoform (Homo sapiens, UniProt O00329); assay: Inhibition of human PI3Kdelta by fluorescence-based immunoassay
T1 sequence (O00329 whole entry): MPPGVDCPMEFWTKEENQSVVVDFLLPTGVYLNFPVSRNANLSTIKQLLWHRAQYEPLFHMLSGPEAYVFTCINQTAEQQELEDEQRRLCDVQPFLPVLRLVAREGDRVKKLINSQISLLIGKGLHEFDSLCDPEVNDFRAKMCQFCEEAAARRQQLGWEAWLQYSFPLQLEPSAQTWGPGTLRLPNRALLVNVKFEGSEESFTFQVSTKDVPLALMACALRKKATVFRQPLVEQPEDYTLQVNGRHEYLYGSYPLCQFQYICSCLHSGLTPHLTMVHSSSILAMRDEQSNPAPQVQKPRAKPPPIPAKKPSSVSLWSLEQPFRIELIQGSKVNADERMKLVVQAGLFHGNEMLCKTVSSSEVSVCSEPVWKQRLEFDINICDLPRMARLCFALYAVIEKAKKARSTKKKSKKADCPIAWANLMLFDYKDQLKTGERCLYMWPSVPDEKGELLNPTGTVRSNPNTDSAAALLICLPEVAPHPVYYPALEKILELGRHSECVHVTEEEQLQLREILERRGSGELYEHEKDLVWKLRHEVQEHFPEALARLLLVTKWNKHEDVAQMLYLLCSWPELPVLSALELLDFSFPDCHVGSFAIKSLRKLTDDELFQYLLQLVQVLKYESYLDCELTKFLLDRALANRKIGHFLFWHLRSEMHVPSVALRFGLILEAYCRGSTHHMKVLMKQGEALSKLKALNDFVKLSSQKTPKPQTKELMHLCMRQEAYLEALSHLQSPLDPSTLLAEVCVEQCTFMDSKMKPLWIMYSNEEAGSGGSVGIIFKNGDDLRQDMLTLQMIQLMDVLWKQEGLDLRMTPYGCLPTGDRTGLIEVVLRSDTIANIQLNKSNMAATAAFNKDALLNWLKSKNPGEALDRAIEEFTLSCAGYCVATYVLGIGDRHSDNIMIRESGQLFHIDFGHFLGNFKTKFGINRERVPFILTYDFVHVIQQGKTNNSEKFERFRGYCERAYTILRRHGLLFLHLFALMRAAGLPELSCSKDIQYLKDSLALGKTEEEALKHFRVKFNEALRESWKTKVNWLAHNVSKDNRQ

[7] = biological target: Phosphatidylinositol 3-kinase regulatory subunit beta/Phosphatidylinositol 4,5-bisphosphate 3-kinase catalytic subunit beta isoform (Homo sapiens, UniProt P42338); assay: Inhibition of human PI3K p110beta/p85beta by fluorescence-based immunoassay; format: protein-complex assay
[8] = tested on: MCF7; assay: cells; conditions: Homo sapiens, MCF7, 72 h
[9] = tested on: HeLa; assay: Antiproliferative activity against human HeLa cells after 72 hrs by MTT assay; format: functional, cell-based

Chain of Phosphatidylinositol 4,5-bisphosphate 3-kinase catalytic subunit gamma isoform (P48736 whole entry, canonical isoform): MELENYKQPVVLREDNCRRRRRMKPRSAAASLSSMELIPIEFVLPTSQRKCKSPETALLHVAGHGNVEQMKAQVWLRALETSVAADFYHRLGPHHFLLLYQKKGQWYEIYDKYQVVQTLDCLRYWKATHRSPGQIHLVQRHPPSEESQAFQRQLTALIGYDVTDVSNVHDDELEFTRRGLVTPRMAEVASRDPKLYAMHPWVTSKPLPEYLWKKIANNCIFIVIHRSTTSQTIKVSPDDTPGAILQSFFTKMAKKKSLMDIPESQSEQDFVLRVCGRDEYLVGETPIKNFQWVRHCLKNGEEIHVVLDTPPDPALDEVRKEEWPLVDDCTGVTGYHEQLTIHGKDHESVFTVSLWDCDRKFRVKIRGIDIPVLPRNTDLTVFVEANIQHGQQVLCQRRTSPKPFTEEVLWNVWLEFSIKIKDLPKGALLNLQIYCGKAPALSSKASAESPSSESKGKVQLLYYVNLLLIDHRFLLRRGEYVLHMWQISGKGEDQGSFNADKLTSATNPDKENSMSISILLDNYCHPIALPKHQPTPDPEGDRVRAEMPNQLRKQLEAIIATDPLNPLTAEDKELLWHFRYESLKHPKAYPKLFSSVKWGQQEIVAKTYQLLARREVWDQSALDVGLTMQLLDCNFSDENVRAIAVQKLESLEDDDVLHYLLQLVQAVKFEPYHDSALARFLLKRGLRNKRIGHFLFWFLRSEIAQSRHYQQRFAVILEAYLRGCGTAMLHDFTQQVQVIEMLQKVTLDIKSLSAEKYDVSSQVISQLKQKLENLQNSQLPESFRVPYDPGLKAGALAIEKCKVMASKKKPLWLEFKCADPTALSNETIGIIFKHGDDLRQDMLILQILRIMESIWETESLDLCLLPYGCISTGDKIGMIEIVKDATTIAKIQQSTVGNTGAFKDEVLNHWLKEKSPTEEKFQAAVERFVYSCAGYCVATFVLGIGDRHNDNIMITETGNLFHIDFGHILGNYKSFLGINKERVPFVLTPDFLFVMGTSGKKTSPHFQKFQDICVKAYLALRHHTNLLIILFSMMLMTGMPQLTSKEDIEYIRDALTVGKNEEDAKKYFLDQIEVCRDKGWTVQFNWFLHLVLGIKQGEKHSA
Chain of PI3-kinase p110-alpha/p85-alpha (P27986 whole entry, canonical isoform): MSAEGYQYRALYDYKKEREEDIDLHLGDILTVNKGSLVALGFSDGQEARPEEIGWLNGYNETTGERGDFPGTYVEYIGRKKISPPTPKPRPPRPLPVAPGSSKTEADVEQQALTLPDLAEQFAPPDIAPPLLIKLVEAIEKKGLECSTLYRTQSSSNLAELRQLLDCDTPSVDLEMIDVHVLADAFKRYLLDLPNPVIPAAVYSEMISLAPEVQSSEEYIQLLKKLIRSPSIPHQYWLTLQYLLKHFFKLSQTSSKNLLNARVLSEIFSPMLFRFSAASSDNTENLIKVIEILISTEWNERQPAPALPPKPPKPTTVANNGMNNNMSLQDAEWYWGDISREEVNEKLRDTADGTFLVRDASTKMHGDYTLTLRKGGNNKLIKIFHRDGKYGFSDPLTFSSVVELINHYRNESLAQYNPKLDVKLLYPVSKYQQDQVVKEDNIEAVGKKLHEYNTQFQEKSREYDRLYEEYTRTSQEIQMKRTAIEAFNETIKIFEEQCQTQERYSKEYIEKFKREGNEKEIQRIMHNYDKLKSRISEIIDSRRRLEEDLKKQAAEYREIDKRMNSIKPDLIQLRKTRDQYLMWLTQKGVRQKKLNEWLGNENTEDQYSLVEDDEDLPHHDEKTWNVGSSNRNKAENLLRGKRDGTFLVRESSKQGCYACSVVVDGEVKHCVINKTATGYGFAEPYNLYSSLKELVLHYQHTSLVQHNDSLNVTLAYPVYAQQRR
Chain of PI3-kinase p110-alpha/p85-alpha (P42336 whole entry, canonical isoform): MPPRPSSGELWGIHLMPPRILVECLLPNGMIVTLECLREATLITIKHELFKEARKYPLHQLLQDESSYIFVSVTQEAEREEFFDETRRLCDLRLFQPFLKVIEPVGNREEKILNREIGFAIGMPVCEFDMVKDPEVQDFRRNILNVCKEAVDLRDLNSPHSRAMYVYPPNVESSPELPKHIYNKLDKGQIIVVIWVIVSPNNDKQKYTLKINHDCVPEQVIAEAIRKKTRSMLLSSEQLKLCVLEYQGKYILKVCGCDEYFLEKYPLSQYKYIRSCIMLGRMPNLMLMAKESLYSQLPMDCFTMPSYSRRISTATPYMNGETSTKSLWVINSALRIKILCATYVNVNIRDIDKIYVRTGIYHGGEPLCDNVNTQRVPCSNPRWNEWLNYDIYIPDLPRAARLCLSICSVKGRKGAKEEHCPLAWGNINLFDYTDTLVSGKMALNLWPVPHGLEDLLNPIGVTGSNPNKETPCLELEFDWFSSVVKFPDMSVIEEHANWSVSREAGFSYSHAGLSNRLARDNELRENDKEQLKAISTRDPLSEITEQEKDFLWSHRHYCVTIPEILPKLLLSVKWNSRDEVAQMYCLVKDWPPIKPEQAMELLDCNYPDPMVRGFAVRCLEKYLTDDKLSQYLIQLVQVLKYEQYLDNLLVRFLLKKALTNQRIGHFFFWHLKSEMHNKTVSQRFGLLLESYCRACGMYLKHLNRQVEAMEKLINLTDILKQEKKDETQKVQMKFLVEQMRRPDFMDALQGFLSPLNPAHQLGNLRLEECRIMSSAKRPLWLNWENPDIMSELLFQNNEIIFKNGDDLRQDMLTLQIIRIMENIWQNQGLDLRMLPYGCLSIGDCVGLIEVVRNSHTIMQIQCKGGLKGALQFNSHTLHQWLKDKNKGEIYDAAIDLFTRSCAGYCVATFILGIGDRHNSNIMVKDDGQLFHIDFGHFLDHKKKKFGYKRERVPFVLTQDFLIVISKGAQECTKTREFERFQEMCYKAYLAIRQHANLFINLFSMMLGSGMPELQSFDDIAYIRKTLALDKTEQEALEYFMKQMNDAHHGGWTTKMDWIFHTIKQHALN
Chain of Phosphatidylinositol 3-kinase regulatory subunit beta/Phosphatidylinositol 4,5-bisphosphate 3-kinase catalytic subunit beta isoform (P42338 whole entry, canonical isoform): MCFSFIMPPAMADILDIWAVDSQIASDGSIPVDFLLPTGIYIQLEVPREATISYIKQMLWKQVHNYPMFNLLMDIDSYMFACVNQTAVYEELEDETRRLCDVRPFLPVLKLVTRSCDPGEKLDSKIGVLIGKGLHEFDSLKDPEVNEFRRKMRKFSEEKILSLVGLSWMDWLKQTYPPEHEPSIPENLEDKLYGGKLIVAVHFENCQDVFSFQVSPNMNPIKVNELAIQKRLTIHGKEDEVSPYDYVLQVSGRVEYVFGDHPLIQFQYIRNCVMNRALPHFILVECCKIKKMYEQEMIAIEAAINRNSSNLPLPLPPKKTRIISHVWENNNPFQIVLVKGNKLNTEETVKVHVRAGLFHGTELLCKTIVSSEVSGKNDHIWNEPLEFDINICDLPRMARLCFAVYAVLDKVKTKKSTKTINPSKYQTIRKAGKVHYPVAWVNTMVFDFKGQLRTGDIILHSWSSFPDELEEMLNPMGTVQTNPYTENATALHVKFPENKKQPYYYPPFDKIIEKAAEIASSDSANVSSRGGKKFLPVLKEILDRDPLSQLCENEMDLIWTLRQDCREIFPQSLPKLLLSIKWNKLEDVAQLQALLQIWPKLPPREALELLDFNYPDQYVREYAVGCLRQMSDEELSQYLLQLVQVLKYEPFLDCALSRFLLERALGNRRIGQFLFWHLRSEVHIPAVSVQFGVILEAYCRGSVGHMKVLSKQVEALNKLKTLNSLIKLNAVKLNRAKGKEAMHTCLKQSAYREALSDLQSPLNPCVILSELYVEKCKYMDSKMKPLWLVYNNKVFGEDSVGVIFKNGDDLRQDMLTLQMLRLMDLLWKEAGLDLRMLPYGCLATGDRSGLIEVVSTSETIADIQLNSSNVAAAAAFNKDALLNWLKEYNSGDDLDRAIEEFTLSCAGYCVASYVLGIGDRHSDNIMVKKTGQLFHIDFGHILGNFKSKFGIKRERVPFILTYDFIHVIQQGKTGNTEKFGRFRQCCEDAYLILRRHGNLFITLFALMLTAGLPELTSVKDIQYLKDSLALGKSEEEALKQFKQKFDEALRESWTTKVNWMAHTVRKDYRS
Chain of Phosphatidylinositol 3-kinase regulatory subunit beta/Phosphatidylinositol 4,5-bisphosphate 3-kinase catalytic subunit beta isoform (O00459 whole entry, further chain, canonical isoform): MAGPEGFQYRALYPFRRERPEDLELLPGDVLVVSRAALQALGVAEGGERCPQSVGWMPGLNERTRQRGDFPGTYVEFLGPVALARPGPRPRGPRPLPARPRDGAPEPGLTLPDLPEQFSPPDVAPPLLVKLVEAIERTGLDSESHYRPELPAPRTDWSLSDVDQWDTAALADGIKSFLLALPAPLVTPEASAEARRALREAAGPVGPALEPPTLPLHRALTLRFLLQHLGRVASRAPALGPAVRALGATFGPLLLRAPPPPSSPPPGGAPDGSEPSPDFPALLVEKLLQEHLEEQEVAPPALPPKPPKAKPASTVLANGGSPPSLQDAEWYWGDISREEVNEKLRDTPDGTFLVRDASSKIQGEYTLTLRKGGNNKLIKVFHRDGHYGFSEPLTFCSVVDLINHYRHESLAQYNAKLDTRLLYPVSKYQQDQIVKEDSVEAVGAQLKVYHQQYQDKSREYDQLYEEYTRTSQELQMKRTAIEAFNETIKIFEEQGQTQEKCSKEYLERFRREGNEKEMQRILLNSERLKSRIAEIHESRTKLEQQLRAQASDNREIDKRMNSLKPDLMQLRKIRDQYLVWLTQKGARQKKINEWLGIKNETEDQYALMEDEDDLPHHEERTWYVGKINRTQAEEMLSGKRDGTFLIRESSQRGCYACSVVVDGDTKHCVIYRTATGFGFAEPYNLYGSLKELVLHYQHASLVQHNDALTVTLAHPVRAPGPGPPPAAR

Row | SMILES | IC50 [1] | IC50 [2] | IC50 [3] | IC50 [4] | CC50 at 72 h [5] | IC50 [6] | IC50 [7] | IC50 [8] | IC50 [9]
1 | O=C(O)c1cn(C2CC2)c2cc(N3CCN(C(=O)c4cc([N+](=O)[O-])cc([N+](=O)[O-])c4O)CC3)c(F)cc2c1=O | 0.67 µM | 0.29 µM | 0.356 µM | 0.056 µM | 365 µM | 0.271 µM | > 1 µM | 0.11 µM | 0.06 µM
2 | COc1ccc(C(=O)N2CCN(c3cc4c(cc3F)c(=O)c(C(=O)O)cn4C3CC3)CC2)cn1 | 680 µM | 65.9 µM | > 1 µM | 0.285 µM |  | > 1 µM | > 1 µM | 42.2 µM | 344 µM
3 | O=C(O)c1cn(C2CC2)c2cc(N3CCN(C(=O)c4cc(Br)ccc4O)CC3)c(F)cc2c1=O | 77 µM | 36.7 µM | 0.894 µM | 0.169 µM | 289 µM | 0.674 µM | > 1 µM | 22.1 µM | 19.6 µM
4 | CCn1cc(C(=O)O)c(=O)c2cc(F)c(N3CCN(C(=O)c4ccc(OC)nc4)CC3)cc21 | > 1000 µM | 426 µM | > 1 µM | 0.279 µM |  | > 1 µM | > 1 µM | 357 µM | 154 µM
5 | CCn1cc(C(=O)O)c(=O)c2cc(F)c(N3CCN(C(=O)c4cc(OC)ccc4O)CC3)cc21 | 1.06 µM | 0.47 µM | 0.698 µM | 0.112 µM | 279 µM | 0.489 µM | > 1 µM | 3.79 µM | 2.11 µM
6 | O=C(O)c1cn(C2CC2)c2cc(N3CCN(C(=O)c4cccnc4Cl)CC3)c(F)cc2c1=O | > 1000 µM | 179 µM | > 1 µM | 0.265 µM |  | > 1 µM | > 1 µM | 153 µM | 279 µM
7 | CCn1cc(C(=O)O)c(=O)c2cc(F)c(N3CCN(C(=O)c4c(C)cccc4O)CC3)cc21 | 121 µM | 27.9 µM | 0.914 µM | 0.173 µM | 343 µM | 0.683 µM | > 1 µM | 107 µM | 53.3 µM
8 | CC[C@H](Nc1ncnc2[nH]cnc12)c1nc2cccc(F)c2c(=O)n1-c1ccccc1 [IDELALISIB] | 0.33 µM |  |  |  |  |  |  | 0.78 µM | 0.15 µM
9 | COc1ccc(C(=O)N2CCN(c3cc4c(cc3F)c(=O)c(C(=O)O)cn4C3CC3)CC2)c(O)c1 | 0.85 µM | 2.59 µM | 0.642 µM | 0.089 µM | 311 µM | 0.348 µM | > 1 µM | 0.33 µM | 0.16 µM
10 | O=C(O)c1cn(C2CC2)c2cc(N3CCN(C(=O)c4cc([N+](=O)[O-])ccc4O)CC3)c(F)cc2c1=O | 87.1 µM | 122 µM | 0.591 µM | 0.185 µM | 297 µM | 0.722 µM | > 1 µM | 47.9 µM | 25.8 µM
11 | CCn1cc(C(=O)O)c(=O)c2cc(F)c(N3CCN(C(=O)c4cccnc4Cl)CC3)cc21 | 279 µM | > 1000 µM | > 1 µM | 0.259 µM |  | > 1 µM | > 1 µM | 212 µM | 88.9 µM
12 | CCn1cc(C(=O)O)c(=O)c2cc(F)c(N3CCN(C(=O)c4cc(Cl)ccc4O)CC3)cc21 | 1.55 µM | 2.94 µM | 0.712 µM | 0.098 µM | 273 µM | 0.311 µM | > 1 µM | 1.21 µM | 0.96 µM
13 | CCn1cc(C(=O)O)c(=O)c2cc(F)c(N3CCN(C(=O)c4cc(Br)ccc4O)CC3)cc21 | 0.99 µM | 3.22 µM | 0.695 µM | 0.111 µM | 266 µM | 0.474 µM | > 1 µM | 7.03 µM | 0.51 µM
14 | O=C(O)c1cn(C2CC2)c2cc(N3CCN(C(=O)c4cc(Cl)ccc4O)CC3)c(F)cc2c1=O | 114 µM | 50.6 µM | 0.963 µM | 0.174 µM | 269 µM | 0.553 µM | > 1 µM | 88.4 µM | 64.2 µM
